Key:
ProMMP-9 = test: Solid-phase binding of [125I]-proMMP-9 to immobilized collagens/peptides (microwells); set-up: species or system human; settings: ProMMP-9, 2 ng/well; coated wells; 4°C, 2 h; residual radioactivity; mean ± SD, at least five experiments in triplicate
Protocol: (§1) Human recombinant proMMPs and in vitro activated MMPs were obtained from Invitek and were labeled with the [^125I]-Bolton-Hunter reagent according to the manufacturer's instructions (PerkinElmer, Rodgau, Germany) before the buffer was exchanged for phosphate-buffered saline (PBS) with 0.05% (vol/vol) Tween 20 by gel filtration as described previously. Specific radioactivity for [^125I]-MMPs was 3-9 × 10^4 cpm/ng. Precipitation with 10% (wt/vol) trichloroacetic acid and 200 μg of BSA recovered 96% to 100% of protein-bound radioactivity. Aliquots of labeled MMPs were frozen and stored at -80°C. The activity and integrity were checked by substrate gel zymography using SDS-PAGE and autoradiography with overnight exposure to Biomax MS film (Kodak, Stuttgart, Germany) (Figure 2A).
(§2) Native human CI, CIII and CVI were purified from skin tissue and placenta. The CI single chains α1(I) and α2(I) were obtained and modified as described previously. To prepare defined fragments, 2 mg of α1(I) were dissolved in 1 ml of 70% (vol/vol) formic acid at room temperature, the tubes were flushed with nitrogen for 10 min, and then 2 mg of CB were added. After incubation for 4 h at 37°C, free CB was neutralized and the samples were lyophilized. The peptides CB3, CB6, CB7 and CB8 were separated from the reaction mixture by gel filtration followed by ion-exchange chromatography. The resulting peptides were characterized by amino acid analysis and SDS-PAGE [45, 46]. The CB peptides had the following melting temperatures: CB3, 23.9°C; CB6, 26.7°C; CB7, 28.1°C; and CB8, 28.0°C [31].
(§3) The following collagen analogs and control peptides were synthesized as described previously: (GPO)10, H-Gly-Cys-Hyp-(Gly-Pro-Hyp)10-Gly-Cys-Hyp-Gly-NH2; (GPP)10, H-Gly-Cys-Pro-(Gly-Pro-Pro)10-Gly-Cys-Pro-Gly-NH2; and GAP, H-Gly-Ala-Cys-(Gly-Ala-Pro)5-Gly-Phe-Hyp-Gly-Glu-Arg-(Gly-Ala-Pro)5-NH2. Peptides (POG)10, (PPG)10 and (POG)5 were purchased from Peptide International (Louisville, KY, USA). Spontaneous triple-helix assembly was approved by polarimetry over a 10-cm path length at 1°C/min in 10 mM phosphate buffer, pH 7.4. At 5 mg/ml, midpoints of melting curves occurred at 82.3 ± 1.4°C for (GPO)10 and at 45.8 ± 0.8°C for (GPP)10. […] Graphs were calculated from the primary data using a custom fitting program written by D.A. Slatter (Department of Biochemistry, University of Cambridge, Cambridge, UK [48]) to model different possible transitions. All collagens, CI derivatives and peptides were stored in stock solutions of 2 mg/ml in 150 mM acetic acid at -20°C.
(§4) ProMMP-2 and proMMP-9 or actMMP-2 and actMMP-9 were bound to nitrocellulose and polystyrene-immobilized native collagens, CI chains, CB peptides or structural analogs. Serial dilutions of collagens or CI derivatives in 150 mM acetic acid were dotted at 3 × 3 μl to a nitrocellulose membrane with high protein-binding capacity (GE Healthcare, Munich, Germany). Air-dried membranes were blocked with PBS and 0.3% (vol/vol) Tween 20 overnight at 4°C, washed three times, and incubated with 1 ng/ml [^125I]-pro- and actMMP-2 and pro- and actMMP-9 in PBS and 0.3% (vol/vol) Tween 20 for 2 h at room temperature. Membranes were washed again and air-dried, and bound MMP was monitored by autoradiography. In parallel, polystyrene microtiter plates (Dynex, Chantilly, VA, USA) were coated with collagen proteins and peptides. Here 2 μg/well or 200 ng/well proteins and peptides or BSA as control were immobilized in 100 μl of 50 mM ammonium bicarbonate buffer, pH 9.6, by overnight incubation at 4°C. Immobilization efficacies were 20% to 45% of total proteins. Wells were washed three times with PBS, and nonspecific binding sites were blocked with PBS and 0.05% (vol/vol) Tween 20 for 1 h at room temperature. All incubation steps were performed with 2 ng of [^125I]-MMPs at 4°C for 2 h. […]

ActMMP-2 = test: Solid-phase binding of [125I]-actMMP-2 to immobilized collagens/peptides (microwells); set-up: species or system human; settings: for Binding of [125I]-MMPs: ActMMP-2, 2 ng/well, coated wells, 4°C, 2 h, residual radioactivity, mean ± SD, at least five experiments in triplicate
Protocol: as §1, §2, §3, §4

ActMMP-9 = test: Solid-phase binding of [125I]-actMMP-9 to immobilized collagens/peptides (microwells); set-up: species or system human; settings: ActMMP-9, 2 ng/well; coated wells; 4°C, 2 h; residual radioactivity; mean ± SD, at least five experiments in triplicate
Protocol: as §1, §2, §3, §4

ProMMP-2 = test: Solid-phase binding of [125I]-proMMP-2 to immobilized collagens/peptides (microwells); set-up: species or system human; settings: for Binding of [125I]-MMPs: ProMMP-2, 2 ng/well, coated wells, 4°C, 2 h, residual radioactivity, mean ± SD, at least five experiments in triplicate
Protocol: as §1, §2, §3, §4

[1] = test system: gelatinase activity in rat cirrhotic liver; test: In situ zymography of cirrhotic liver, negative controls; assay type: biochemical; settings: 10 mM ethylenediaminetetraacetic acid or 1 mM phenanthroline; DQ-gelatine
Protocol: As described earlier, in situ zymography was performed with cryostat sections (6 μm) of rat cirrhotic liver. In brief, sections were dried, overlayed with 100 μg/ml DQ-gelatine (λex/em, 495/515 nm; Molecular Probes, Eugene, OR, USA) and 0.5% (wt/vol) low-melt agarose in MMP activity buffer. […] Samples were inserted into coverslips and incubated at 40°C for 1 h before being transferred to room temperature for an additional 2 to 16 h. Hoechst 33342 (Invitrogen, Carlsbad, California, USA) nuclear dye was used for counterstaining. Images were obtained by fluorescence microscopy using a Nikon E800 photodocumentation microscope (Nikon Imaging, Düsseldorf, Germany).

MMPs / CI = test: SPR, effect of control peptide on interaction of the MMPs with CI; assay type: binding, human; settings: linear control peptide, not shown
Protocol: Sensor chip preparations and SPR measurements were performed using a BiacoreX device and the Bia-evaluation software (version 3.2; Biacore, Uppsala, Sweden). The pepsin-resistant triple-helical part of human fibrillar CI (100 μg/ml) in 10 mM acetate coupling buffer, pH 4.8, was immobilized to a dextran matrix-sensor chip at a flow rate of 5 μl/min, resulting in 5,500 resonance units from CI covalently linked via its primary amino groups. The control flow cell was prepared using the coupling buffer without CI. Surfaces were activated and blocked as described previously. […] The effects of (GPO)10, GAP, (POG)5, (GPP)10 and P33-42 on MMP-2 and MMP-9 binding to CI and their enzymatic activity were determined by adding the binding competitors to the (pro- and act)MMP-2 and MMP-9 solution in 10- to 150-fold molar excesses. Effects independent of MMP-2 and MMP-9 activity were monitored in the presence of Ro 28-2653 (1 μM) during SPR analysis. […] Kinetic parameters were analyzed using the 1:1 binding model with drifting baseline and subtraction of the control flow cell binding from sensorgrams obtained with immobilized CI. Binding constants (Kd) were calculated from the association (ka) and dissociation rates (kd) obtained from individual binding curves at different concentrations. […]

[2] = Triple-helix melting temperature; assay type: physicochemical; settings: at 5°C; polarimetry
Protocol: as §2, §3

proMMP-2 / CI = biological target: T1, proMMP-2 / CI (Homo sapiens, UniProt P08253); test: SPR, competition of proMMP-2 binding to CI, MMP activity buffer with Ro 28-2653; settings: SPR; MMP activity buffer with Ro 28-2653
T1 construct: prodomain-containing proMMP-2 or proMMP-9; purchased Invitek
T1 sequence (P08253 30-660 limits assumed): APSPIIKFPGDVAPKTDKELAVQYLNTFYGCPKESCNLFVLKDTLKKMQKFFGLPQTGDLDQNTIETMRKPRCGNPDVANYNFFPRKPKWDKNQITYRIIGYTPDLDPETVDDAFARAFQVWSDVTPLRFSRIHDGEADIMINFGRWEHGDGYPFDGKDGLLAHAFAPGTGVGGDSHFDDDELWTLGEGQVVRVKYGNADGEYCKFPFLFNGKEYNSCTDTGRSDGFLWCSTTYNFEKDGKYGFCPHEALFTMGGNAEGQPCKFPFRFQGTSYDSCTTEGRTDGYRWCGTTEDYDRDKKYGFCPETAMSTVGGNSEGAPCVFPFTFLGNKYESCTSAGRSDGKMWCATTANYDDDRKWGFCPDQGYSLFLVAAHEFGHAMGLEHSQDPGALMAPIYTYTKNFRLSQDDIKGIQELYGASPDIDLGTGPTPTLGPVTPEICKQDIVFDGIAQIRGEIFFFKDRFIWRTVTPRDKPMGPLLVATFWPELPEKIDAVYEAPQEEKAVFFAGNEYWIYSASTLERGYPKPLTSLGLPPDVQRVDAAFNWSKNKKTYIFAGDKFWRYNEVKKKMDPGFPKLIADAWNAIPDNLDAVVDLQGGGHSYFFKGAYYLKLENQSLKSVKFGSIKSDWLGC
Protocol: Sensor chip preparations and SPR measurements were performed using a BiacoreX device and the Bia-evaluation software (version 3.2; Biacore, Uppsala, Sweden). The pepsin-resistant triple-helical part of human fibrillar CI (100 μg/ml) in 10 mM acetate coupling buffer, pH 4.8, was immobilized to a dextran matrix-sensor chip at a flow rate of 5 μl/min, resulting in 5,500 resonance units from CI covalently linked via its primary amino groups. The control flow cell was prepared using the coupling buffer without CI. Surfaces were activated and blocked as described previously. Immediately after thawing, pro- and actMMP-2 and pro- and actMMP-9 were diluted to 100 to 250 nM in MMP activity buffer or in PBS and 0.05% (vol/vol) Tween 20. For SPR measurements, flow rates were 10 μl/min at 25°C, and equilibrium was typically reached after 30 to 60 s. The effects of (GPO)10, GAP, (POG)5, (GPP)10 and P33-42 on MMP-2 and MMP-9 binding to CI and their enzymatic activity were determined by adding the binding competitors to the (pro- and act)MMP-2 and MMP-9 solution in 10- to 150-fold molar excesses. Effects independent of MMP-2 and MMP-9 activity were monitored in the presence of Ro 28-2653 (1 μM) during SPR analysis. The gelatinase inhibitor Ro 28-2653 was a generous gift from H.-W. Krell (Roche, Grenzach-Wyhlen, Germany). Sensor surfaces were regenerated with 10 mM glycine, pH 2.3, for 1 min between runs, and sensor chips were used up to 25 times. Kinetic parameters were analyzed using the 1:1 binding model with drifting baseline and subtraction of the control flow cell binding from sensorgrams obtained with immobilized CI. Binding constants (Kd) were calculated from the association (ka) and dissociation rates (kd) obtained from individual binding curves at different concentrations. Individual drifts of the resonance signal were fitted locally, and χ^2 values of 0.2% to 1.0% of the maximum resonance value were considered good fits.

CVI: native human collagen type VI
Binding of [125I]-MMPs (ProMMP-9): 12.3 ± 0.8 % of maximum control
Binding of [125I]-MMPs (ActMMP-2): 4.8 ± 0.6 % of maximum control
Binding of [125I]-MMPs (ActMMP-9): 2.4 ± 0.1 % of maximum control
Binding of [125I]-MMPs (ProMMP-2): 14.1 ± 1.8 % of maximum control

α2(I): CI single chain α2(I)
Binding of [125I]-MMPs (ProMMP-9): 21.8 ± 1.1 % of maximum control
Binding of [125I]-MMPs (ActMMP-2): 10.7 ± 1.8 % of maximum control
Binding of [125I]-MMPs (ActMMP-9): 2.6 ± 0.2 % of maximum control
Binding of [125I]-MMPs (ProMMP-2): 30.2 ± 2.3 % of maximum control

c1cnc2c(c1)ccc1cccnc12 [phenanthroline]
gelatinase activity [1]: no generation of bright green fluorescence was observed

O=C(O)CN(CCN(CC(=O)O)CC(=O)O)CC(=O)O [ethylenediaminetetraacetic acid]
gelatinase activity [1]: no generation of bright green fluorescence was observed

α1(I): α1 chain of collagen type I
Binding of [125I]-MMPs (ProMMP-9): 37.6 ± 0.9 % of maximum control
Binding of [125I]-MMPs (ActMMP-2): 19.0 ± 3.0 % of maximum control
maximum binding (ActMMP-2; actMMP-2, text): 19%
Binding of [125I]-MMPs (ActMMP-9): 4.7 ± 0.3 % of maximum control
Binding of [125I]-MMPs (ProMMP-2): 36.0 ± 4.0 % of maximum control

H-Gly-Ala-Cys-(Gly-Ala-Pro)5-Gly-Phe-Hyp-Gly-Glu-Arg-(Gly-Ala-Pro)5-NH2 [GAP, linear Gly-Ala-Pro (GAP) control peptide]
Binding of [125I]-MMPs (ProMMP-9): 1.3 ± 0.2 % of maximum control
effect on interaction of the MMPs with CI (MMPs / CI): no effect
helicity [2]: nonhelical even at 5 °C
Binding of [125I]-MMPs (ActMMP-2): 1.5 ± 0.7 % of maximum control
Binding of [125I]-MMPs (ActMMP-9): 0.7 ± 0.2 % of maximum control
competition with proMMP-2 binding to CI (proMMP-2 / CI): less efficient
Binding of [125I]-MMPs (ProMMP-2): 1.7 ± 1.0 % of maximum control
interaction with control peptides (ProMMP-2; pro- and act-forms of MMP-2 and MMP-9, in words): only marginal interactions
